{
  "source": "patent US11453640B2",
  "about": "“Small molecules for disrupting the super elongation complex and inhibiting transcription elongation for cancer therapy” (NORTHWESTERN UNIVERSITY, priority 2018, dated 2022)",
  "key": {"MDA231-LM2 cells": {"system": "MDA231-LM2 cells", "test": "Colony formation of MDA231-LM2 cells in vitro", "assay_type": "cell-based", "conditions": "5 days", "method": "FIG. 14, related to FIG. 7. SEC disruptors delay tumor progression and improve survival of MDA231-LM2 tumor mice. (A) KL-1 and KL-2 inhibit the colony formation of MDA231-LM2 cells in vitro. 5×10^3 MDA231-LM2 cells were seeded in 6-well plates and treated with KL-1 or KL-2 at the indicated doses for 5 days. Crystal violet staining was performed to stain the colonies. (B) KL-1 and KL-2 induce apoptosis in MDA231-LM2 cells. Bar graph depiction of Annexin V positive MDA231-LM2 cells after 24 hr of KL-1 and KL-2 treatments at the indicated concentrations. Data are represented as Mean+/−SD. […] Each individual line indicates the weights of each mouse during toxicity test."}, "H2171 and SW1271 cells": {"system": "H2171 and SW1271 cells", "test": "CellTiter-Glo cell proliferation of small cell lung cancer cells", "assay_type": "cell-based, human", "conditions": "3 days, increasing concentrations", "text": "FIG. 6. SEC disruption targets MYC and MYC target genes. (A-B) Venn diagram of deregulated genes in 293T cells by KL-1 and KL-2. […] (C) Heat map showing the expression changes in response to SEC inhibitors, with differentially expressed canonical MYC targets, RNA splicing factors, and core SNRP assembly genes highlighted. […] Each cluster is represented by different colors and a circle node denotes each enriched term. (E) MA plots of RNA splicing and Hallmark MYC target genes in KL-2 treated, AFF1 and AFF4 co-depletion, and ELL2-depleted cells. […] The MYC genes, the PRMT5 gene, and genes encoding SEC components are denoted as red squares. (F) Western analysis of MYC protein levels in the MYC lowly expressed small cell lung cancer cell line […] and MYC-amplified small cell lung cancer cell line H2171. (G) Gained SEC occupancy at the MYC binding sites in MYC highly expressed H2171 cells. Genome browser tracks of MYC and SEC occupancy around the PRMT5 gene in SW1271 and H2171 cells are shown. (H) ChIP-seq analysis of MYC binding peaks in SW1271 and H2171 cells. […] The SEC and MYC peaks were determined by MACS with a p-value cutoff at 1E-5. […] Both cell lines were treated with increasing concentrations of KL-1 and KL-2 for 3 days and the cell proliferation was measured with CellTiter-Glo luminescent cell viability assay (Promega) (n=3-6)."}},
  "data": [
    {"smiles": "COc1cccc(C(=O)CC(=O)C(=O)Nc2cc(Cl)ccc2C)c1", "note": "[KL-1, N-(5-chloro-2-methylphenyl)-4-oxo-4-(3-methoxyphenyl)-2-oxobutanamide]", "values": [
      {"measurement": "colony formation capability", "setting": "MDA231-LM2 cells", "result": "could inhibit the colony formation capability"},
      {"measurement": "sensitivity of high MYC expressing H2171 cells versus low MYC expressing SW1271 cells", "setting": "H2171 and SW1271 cells", "result": "more sensitive"}
    ]}
  ]
}
